Source: patent US8658646B2, “Pyrrolopyrazine kinase inhibitors” (Hoffmann-LaRoche Inc., priority 2011, dated 2014)

What was measured:
[1] = molecular target: T1, recombinant human SYK360-635 (Homo sapiens, UniProt P43405); assay: Determination of IC50 of Spleen Tyrosine Kinase (SYK) inhibition, 33P ATP filtration assay; type: biochemical; conditions: SYK aa 360-635 0.5 nM; ATP 20 μM, peptide 5 μM, 0.1% BSA; read-out: SYK_ENZYME_FILTRATION/v1, BSA
T1 construct: made in house

[2] = molecular target: T2, JAK3: Recombinant human kinase domain (Homo sapiens, UniProt P52333); assay: Determination of IC50 of Janus Kinase (JAK) inhibition, radioactive end-point 33P-ATP assay, JAK3; type: biochemical; conditions: ATP 1.5 uM, peptide 50 uM, 20 minutes, read-out: JAK3-INHIB-DR/v1~NO ADDITIVE~Enzyme_Conc = 100
T2 construct: JAK3: Recombinant human kinase domain from Millipore (Cat #14-629) or prepared; purchased Millipore 14-629
T2 sequence (P52333 822-1111 limits assumed): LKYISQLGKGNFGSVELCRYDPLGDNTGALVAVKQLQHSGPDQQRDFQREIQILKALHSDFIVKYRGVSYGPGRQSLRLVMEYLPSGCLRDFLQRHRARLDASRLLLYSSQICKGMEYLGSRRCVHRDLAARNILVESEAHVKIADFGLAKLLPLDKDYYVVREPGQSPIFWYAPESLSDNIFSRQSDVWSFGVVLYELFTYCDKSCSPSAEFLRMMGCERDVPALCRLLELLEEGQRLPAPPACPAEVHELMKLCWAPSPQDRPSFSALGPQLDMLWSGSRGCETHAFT
Description: Determination of IC50 of Janus Kinase (JAK) Inhibition:
Assay conditions used are described below: • Assay Buffer: JAK Kinase Buffer: 50 mM Hepes [pH 7.2], 10 mM MgCl2, 1 mM DTT, 1 mg/ml BSA. The assay was carried out in this buffer. • Assay Format The kinase activity of all three JAK kinases was measured using a radioactive, end-point assay and with trace amounts of ^33P-ATP. The assays were carried out in 96-well polypropylene plates. Experimental Method:
All concentrations were final in the reaction mixture and all incubations were carried at room temperature. […] Final concentration of DMSO in the reaction was 10%. • 2) Compounds were preincubated with enzyme (0.5 nM JAK3 (commercially available), 0.2 nM JAK3 (prepared), 1 nM JAK2, 5 nM JAK1) for 10 minutes. • 3) Reactions were initiated by the addition of a cocktail of the two substrates (ATP and peptide premixed in the JAK Kinase Buffer). […] JAK1 assay was carried out at an ATP concentration of 10 uM and a peptide concentration of 50 uM. • 4) The duration of the assay for JAK2 and JAK3 is 20 minutes. JAK1 assay was carried out for 40 minutes. With all three enzymes, reactions were terminated by the addition of 0.5M EDTA to a final concentration of 100 mM. • 5) 25 ul of terminated reactions were transferred to 150 ul of a 7.5% (v/v) slurry of streptavidin-coated sepharose beads in MgCl2- and CaCl2-free 1× Phosphate Buffered Saline containing 50 mM of EDTA in 96-well, 1.2 um MultiScreen-BV filter plates. • 6) After a 30-minute incubation, the beads were washed under vacuum with the following buffers: • a. 3 to 4 washes with 200 ul of 2M NaCl. • b. 3 to 4 washes with 200 ul of 2M NaCl plus 1% (v/v) phosphoric acid. • c. 1 wash with water. • 7) Washed plates were dried in a 60° C. oven for between 1 to 2 hours. • 8) 70 ul of Microscint 20 scintillation fluid was added to each well of filter plates and after at least 30 minutes of incubation, radioactive counts were measured in a Perkinelmer microplate scintillation counter.

Row | Compound | IC50 [1] [nM] | IC50 [2] [nM]
1 | CC(C)NC(=O)c1c[nH]c2ncc(-c3nn(CCN4CCOCC4)c4cc(Cl)cc(F)c34)nc12 [Example I-129, 2-[6-Chloro-4-fluoro-1-(2-morpholin-4-yl-ethyl)-1H-indazol-3-yl]-5H-pyrrolo[2,3-b]pyrazine-7-carboxylic acid isopropylamide] | 49.5 | 4.41
2 | Cn1nc(-c2cnc3[nH]cc(C(=O)NC4(CO)CCOCC4)c3n2)c2cc(OC(F)F)ccc21 [Example I-286, 2-(5-Difluoromethoxy-1-methyl-1H-indazol-3-yl)-5H-pyrrolo[2,3-b]pyrazine-7-carboxylic acid (4-hydroxymethyl-tetrahydro-pyran-4-yl)-amide] | 83.7 | 748
3 | CC(C)NC(=O)c1c[nH]c2ncc(-c3nn(C)c4c3CCC4)nc12 [Example I-282, 2-(1-Methyl-1,4,5,6-tetrahydro-cyclopentapyrazol-3-yl)-5H-pyrrolo[2,3-b]pyrazine-7-carboxylic acid isopropylamide] | 31.9 | 12.7
4 | Cc1ccc2c(-c3cnc4[nH]cc(C(=O)N[C@H](C)C(=O)N5CC(C#N)C5)c4n3)ncn2c1 [Example I-31, 2-(6-Methyl-imidazo[1,5-a]pyridin-1-yl)-5H-pyrrolo[2,3-b]pyrazine-7-carboxylic acid [(R)-2-(3-cyano-azetidin-1-yl)-1-methyl-2-oxo-ethyl]-amide] | 53.1 | 0.335
5 | COC[C@H](CC(C)C)NC(=O)c1c[nH]c2ncc(-c3nn(C)c4cc(F)ccc34)nc12 [Example I-179, 2-(6-Fluoro-1-methyl-1H-indazol-3-yl)-5H-pyrrolo[2,3-b]pyrazine-7-carboxylic acid ((S)-1-methoxymethyl-3-methyl-butyl)-amide] | 149 | 5.91
6 | CC(C)NC(=O)c1c[nH]c2ncc(-c3nn(C4CNC4)c4cc(F)ccc34)nc12 [Example I-104, 2-(1-Azetidin-3-yl-6-fluoro-1H-indazol-3-yl)-5H-pyrrolo[2,3-b]pyrazine-7-carboxylic acid isopropylamide] | 41 | 5.68
7 | CC(C)NC(=O)c1c[nH]c2ncc(-c3nn(C)c4cc(F)cc(F)c34)nc12 [Example I-101, 2-(4,6-Difluoro-1-methyl-1H-indazol-3-yl)-5H-pyrrolo[2,3-b]pyrazine-7-carboxylic acid isopropylamide] | 13.8 | 10.8
8 | C[C@H](NC(=O)c1c[nH]c2ncc(-c3nn(C)c4cc(F)ccc34)nc12)c1cccc(OC(F)(F)F)c1 [Example I-253, 2-(6-Fluoro-1-methyl-1H-indazol-3-yl)-5H-pyrrolo[2,3-b]pyrazine-7-carboxylic acid [(S)-1-(3-trifluoromethoxy-phenyl)-ethyl]-amide] | 6370 | > 1000
9 | COC[C@H](C)NC(=O)c1c[nH]c2ncc(-c3nn(CCN4CC[C@H](F)C4)c4cc(F)ccc34)nc12 [Example I-243, 2-{6-Fluoro-1-[2-((S)-3-fluoro-pyrrolidin-1-yl)-ethyl]-1H-indazol-3-yl}-5H-pyrrolo[2,3-b]pyrazine-7-carboxylic acid ((S)-2-methoxy-1-methyl-ethyl)-amide] | 70.5 | 1.47
10 | CC(C)NC(=O)c1c[nH]c2ncc(-c3nn(C)c4cc(Cl)cc(F)c34)nc12 [Example I-127, 2-(6-Chloro-4-fluoro-1-methyl-1H-indazol-3-yl)-5H-pyrrolo[2,3-b]pyrazine-7-carboxylic acid isopropylamide] | 22.6 | 11
11 | C[C@@H](NC(=O)c1c[nH]c2ncc(-c3nn(C)c4cc(F)ccc34)nc12)C1COC1 [Example I-252, 2-(6-Fluoro-1-methyl-1H-indazol-3-yl)-5H-pyrrolo[2,3-b]pyrazine-7-carboxylic acid ((R)-1-oxetan-3-yl-ethyl)-amide] | 67.2 | 19.4
12 | C[C@@H](NC(=O)c1c[nH]c2ncc(-c3nn(C)c4cc(F)ccc34)nc12)C1=NCCO1 [Example I-60, 2-(6-Fluoro-1-methyl-1H-indazol-3-yl)-5H-pyrrolo[2,3-b]pyrazine-7-carboxylic acid [(R)-1-(4,5-dihydro-oxazol-2-yl)-ethyl]-amide] | 31.9 | 27.4
13 | Cn1nc(-c2cnc3[nH]cc(C(=O)NC4CCS(=O)(=O)C4)c3n2)c2ccc(Cl)cc21 (centres unmarked) [Example I-113, 2-(6-Chloro-1-methyl-1H-indazol-3-yl)-5H-pyrrolo[2,3-b]pyrazine-7-carboxylic acid (1,1-dioxo-tetrahydro-1λ6-thiophen-3-yl)-amide] | 198 | 256
14 | Cn1nc(-c2cnc3[nH]cc(C(=O)N[C@@H]4CCC[C@H](C#N)C4)c3n2)c2ccc(Cl)cc21 (relative stereo) [Example I-167, 2-(6-Chloro-1-methyl-1H-indazol-3-yl)-5H-pyrrolo[2,3-b]pyrazine-7-carboxylic acid (cis-3-cyano-cyclohexyl)-amide] | 75 | 197
15 | COC[C@H](C)NC(=O)c1c[nH]c2ncc(-n3cnc4cc(Cl)ccc43)nc12 [Example I-223, 2-(5-Chloro-benzoimidazol-1-yl)-5H-pyrrolo[2,3-b]pyrazine-7-carboxylic acid ((S)-2-methoxy-1-methyl-ethyl)-amide] | 416 | 189
16 | CC(O)C(C)NC(=O)c1c[nH]c2ncc(-c3nn(C)c4cc(Cl)ccc34)nc12 (centres unmarked) [Example I-172, 2-(6-Chloro-1-methyl-1H-indazol-3-yl)-5H-pyrrolo[2,3-b]pyrazine-7-carboxylic acid (2-hydroxy-1-methyl-propyl)-amide] | 13.5 | 4.65
17 | CC(NC(=O)c1c[nH]c2ncc(-c3nn(C)c4cc(F)ccc34)nc12)[C@H]1C[C@H](O)C1 (stereo partly drawn) [Example I-75, 2-(6-Fluoro-1-methyl-1H-indazol-3-yl)-5H-pyrrolo[2,3-b]pyrazine-7-carboxylic acid [1-(trans-3-hydroxy-cyclobutyl)-ethyl]-amide] | 9.2 | 20.6
18 | CC(NC(=O)c1c[nH]c2ncc(-c3nn(C)c4cc(F)ccc34)nc12)c1cocn1 (centres unmarked) [Example I-52, 2-(6-Fluoro-1-methyl-1H-indazol-3-yl)-5H-pyrrolo[2,3-b]pyrazine-7-carboxylic acid (1-oxazol-4-yl-ethyl)-amide] | 19.4 | 8.87
19 | Cn1nc(-c2cnc3[nH]cc(C(=O)NC(C)(C)CO)c3n2)c2cc(OC(F)F)ccc21 [Example I-285, 2-(5-Difluoromethoxy-1-methyl-1H-indazol-3-yl)-5H-pyrrolo[2,3-b]pyrazine-7-carboxylic acid (2-hydroxy-1,1-dimethyl-ethyl)-amide] | 4.58 | 82.5
20 | CC(C)NC(=O)c1c[nH]c2ncc(-c3nn(CCN(C)C)c4cc(Cl)cc(F)c34)nc12 [Example I-128, 2-[6-Chloro-1-(2-dimethylamino-ethyl)-4-fluoro-1H-indazol-3-yl]-5H-pyrrolo[2,3-b]pyrazine-7-carboxylic acid isopropylamide] | 186 | 13.3
21 | C[C@@H](NC(=O)c1c[nH]c2ncc(-c3nn(CCN4CCOCC4)c4cc(Cl)ccc34)nc12)C(=O)N1CC(C#N)C1 [Example I-231, 2-[6-Chloro-1-(2-morpholin-4-yl-ethyl)-1H-indazol-3-yl]-5H-pyrrolo[2,3-b]pyrazine-7-carboxylic acid [(R)-2-(3-cyano-azetidin-1-yl)-1-methyl-2-oxo-ethyl]-amide] | – | 2.08
